# Measurements: patent publication US20230278972A1, “SUBSTITUTED HALOALKYL SULFONANILIDE HERBICIDES” (FMC Corporation, priority 2020, published 2023)
# Assays:
# Type in all cases: in vivo
# [1] = system: blackgrass (Alopecurus myosuroides); assay: Test A1 preemergence, blackgrass
# How it was run: (§1)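 Test compounds were formulated in a non-phytotoxic solvent mixture containing a surfactant. For preemergence, seeds sown in a loam soil–sand blend received a directed soil spray. For postemergence, potted plants in the same soil, 2 to 10 cm tall at the one- to two-leaf stage, were sprayed.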
# corn (Zea mays) [2] = assay: Test A1 preemergence, corn
# How it was run: (§2)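 Seeds were first planted into a blend of loam soil and sand and given a preemergence directed soil spray. In parallel, pots of the same soil were sown for postemergence application once plants reached 2 to 10 cm and the one- to two-leaf stage. Both used surfactant-containing non-phytotoxic solvent formulations.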
# [3] = system: Foxtail, Giant (giant foxtail, Setaria faberi); assay: Test A1 preemergence, Foxtail, Giant
# How it was run: as §1
# [4] = system: goosegrass (Eleusine indica); assay: Test A1 preemergence, goosegrass
# How it was run: as §1
# kochia (Bassia scoparia) [5] = assay: Test A1 preemergence, kochia
# How it was run: as §1
# [6] = system: Oat, Wild (wild oat, Avena fatua); assay: Test A1 preemergence, Oat, Wild
# How it was run: as §1
# [7] = system: Pigweed, Palmer (palmer amaranth, palmer pigweed, Amaranthus palmeri); assay: Test A1 preemergence, Pigweed, Palmer
# How it was run: as §1
# [8] = system: ragweed (common ragweed, Ambrosia artemisiifolia); assay: Test A1 preemergence, ragweed
# How it was run: as §1
# [9] = system: Ryegrass, Italian (Italian ryegrass, Lolium multiflorum); assay: Test A1 preemergence, Ryegrass, Italian
# How it was run: as §1
# soybean (Glycine max) [10] = assay: Test A1 preemergence, soybean
# How it was run: as §1
# [11] = system: wheat (Triticum aestivum); assay: Test A1 preemergence, wheat
# How it was run: as §1
# [12] = system: blackgrass (Alopecurus myosuroides); assay: Test A1 postemergence, blackgrass; details: Postemergence, 0 to 100 scale (0 no effect, 100 complete control)
# How it was run: as §2
# corn (Zea mays) [13] = assay: Test A1 postemergence, corn; details: Postemergence
# How it was run: as §1
# [14] = system: Foxtail, Giant (giant foxtail, Setaria faberi); assay: Test A1 postemergence, Foxtail, Giant; details: Postemergence
# How it was run: as §2
# [15] = system: goosegrass (Eleusine indica); assay: Test A1 postemergence, goosegrass; details: Postemergence
# How it was run: as §2
# kochia (Bassia scoparia) [16] = assay: Test A1 postemergence, kochia; details: Postemergence
# How it was run: as §2
# [17] = system: Oat, Wild (wild oat, Avena fatua); assay: Test A1 postemergence, Oat, Wild; details: Postemergence
# How it was run: as §2
# [18] = system: Pigweed, Palmer (palmer amaranth, palmer pigweed, Amaranthus palmeri); assay: Test A1 postemergence, Pigweed, Palmer; details: Postemergence
# How it was run: as §2
# [19] = system: ragweed (common ragweed, Ambrosia artemisiifolia); assay: Test A1 postemergence, ragweed; details: Postemergence
# How it was run: as §2
# [20] = system: Ryegrass, Italian (Italian ryegrass, Lolium multiflorum); assay: Test A1 postemergence, Ryegrass, Italian; details: Postemergence
# How it was run: as §2
# soybean (Glycine max) [21] = assay: Test A1 postemergence, soybean; details: Postemergence
# How it was run: as §2
# [22] = system: wheat (Triticum aestivum); assay: Test A1 postemergence, wheat; details: Postemergence
# How it was run: as §2
# [23] = system: galium (catchweed bedstraw, Galium aparine); assay: Test A1 postemergence, galium; details: Postemergence
# How it was run: as §2
# [24] = system: horseweed (Erigeron canadensis); assay: Test A1 postemergence, horseweed; details: Postemergence
# From the text: Seeds of plant species selected from, blackgrass (Alopecurus myosuroides), corn (Zea mays), Foxtail, Giant (giant foxtail, Setaria faberi), goosegrass (Eleusine indica), kochia (Bassia scoparia), Oat, Wild (wild oat, Avena fatua), Pigweed, Palmer (palmer amaranth, palmer pigweed, Amaranthus palmeri), ragweed (common ragweed, Ambrosia artemisiifolia), Ryegrass, Italian (Italian ryegrass, Lolium multiflorum), soybean (Glycine max), and wheat (Triticum aestivum) were planted into a blend of loam soil and sand and treated preemergence with a directed soil spray using test chemicals formulated in a non-phytotoxic solvent mixture which included a surfactant. At the same time, plants selected from these crop and weed species and also galium (catchweed bedstraw, Galium aparine) and horseweed (Erigeron canadensis) were planted in pots containing the same blend of loam soil and sand and treated with postemergence applications of test chemicals formulated in the same manner. Plants ranged in height from 2 to 10 cm and were in the one- to two-leaf stage for the postemergence treatment. […] A dash (-) response means no test result.
# [25] = system: barnyardgrass (Echinochloa crus-galli); assay: Test B1 flooded paddy test, barnyardgrass; details: 250 g ai/ha, Flood, applied to paddy water, 2-leaf stage, visually evaluated after 10 to 14 days
# From the text: (§3) A dash (-) response means no test result.
# [26] = system: ducksalad (Heteranthera limosa); assay: Test B1 flooded paddy test, ducksalad; details: 250 g ai/ha, Flood, applied to paddy water, 2-leaf stage, visually evaluated after 10 to 14 days
# From the text: as §3
# rice (Oryza sativa) = assay: Test B1 flooded paddy test, rice; details: 250 g ai/ha, Flood, applied to paddy water, 2-leaf stage, visually evaluated after 10 to 14 days
# From the text: as §3
# [27] = 31 g ai/ha, 0 to 100 scale (0 no effect, 100 complete control)
# [28] = 125 g ai/ha, 0 to 100 scale, 0 no effect, 100 complete control
# [29] = 31 g ai/ha, 0 to 100 scale (0 no effect, 100 complete control), 10 days
smiles,measurement,setting,value
CCOC1CC(c2cc(NS(=O)(=O)C(F)(F)F)c(C)cc2C)=NO1 (stereo not drawn) [Compound 318],"Plant response rating, Blackgrass",[1]; [27],30
same,"Plant response rating, Blackgrass",[1]; [28],70
same,"Plant response rating, Corn",corn (Zea mays) [2]; [27],0
same,"Plant response rating, Corn",corn (Zea mays) [2]; [28],70
same,"Plant response rating, Foxtail, Giant",[3]; [27],30
same,"Plant response rating, Foxtail, Giant",[3]; [28],90
same,"Plant response rating, Goosegrass",[4]; [27],80
same,"Plant response rating, Goosegrass",[4]; [28],100
same,"Plant response rating, Kochia",kochia (Bassia scoparia) [5]; [27],60
same,"Plant response rating, Kochia",kochia (Bassia scoparia) [5]; [28],70
same,"Plant response rating, Oat, Wild",[6]; [27],0
same,"Plant response rating, Oat, Wild",[6]; [28],10
same,"Plant response rating, Pigweed, Palmer",[7]; [27],80
same,"Plant response rating, Pigweed, Palmer",[7]; [28],100
same,"Plant response rating, Ragweed",[8]; [27],50
same,"Plant response rating, Ragweed",[8]; [28],70
same,"Plant response rating, Ryegrass, Italian",[9]; [27],50
same,"Plant response rating, Ryegrass, Italian",[9]; [28],90
same,"Plant response rating, Soybean",soybean (Glycine max) [10]; [27],0
same,"Plant response rating, Soybean",soybean (Glycine max) [10]; [28],30
same,"Plant response rating, Wheat",[11]; [27],0
same,"Plant response rating, Wheat",[11]; [28],50
same,"Plant response rating, Blackgrass","[12]; 31 g ai/ha, 10 days",0
same,"Plant response rating, Blackgrass",[12]; 125 g ai/ha,50
same,"Plant response rating, Corn",corn (Zea mays) [13]; [29],30
same,"Plant response rating, Corn","corn (Zea mays) [13]; 125 g ai/ha, 0 to 100 scale",60
same,"Plant response rating, Foxtail, Giant",[14]; [29],0
same,"Plant response rating, Foxtail, Giant","[14]; 125 g ai/ha, 0 to 100 scale",80
same,"Plant response rating, Goosegrass",[15]; [29],30
same,"Plant response rating, Goosegrass","[15]; 125 g ai/ha, 0 to 100 scale",30
same,"Plant response rating, Kochia",kochia (Bassia scoparia) [16]; [29],30
same,"Plant response rating, Kochia","kochia (Bassia scoparia) [16]; 125 g ai/ha, 0 to 100 scale",90
same,"Plant response rating, Oat, Wild",[17]; [29],0
same,"Plant response rating, Oat, Wild","[17]; 125 g ai/ha, 0 to 100 scale",10
same,"Plant response rating, Pigweed, Palmer",[18]; [29],30
same,"Plant response rating, Pigweed, Palmer","[18]; 125 g ai/ha, 0 to 100 scale",50
same,"Plant response rating, Ragweed",[19]; [29],60
same,"Plant response rating, Ragweed","[19]; 125 g ai/ha, 0 to 100 scale",80
same,"Plant response rating, Ryegrass, Italian",[20]; [29],10
same,"Plant response rating, Ryegrass, Italian","[20]; 125 g ai/ha, 0 to 100 scale",70
same,"Plant response rating, Soybean",soybean (Glycine max) [21]; [29],30
same,"Plant response rating, Soybean","soybean (Glycine max) [21]; 125 g ai/ha, 0 to 100 scale",40
same,"Plant response rating, Wheat",[22]; [29],50
same,"Plant response rating, Wheat","[22]; 125 g ai/ha, 0 to 100 scale",70
same,"Plant response rating, Galium",[23]; [29],60
same,"Plant response rating, Galium","[23]; 125 g ai/ha, 0 to 100 scale",60
same,"Plant response rating, Horseweed",[24]; [29],20
same,"Plant response rating, Horseweed","[24]; 125 g ai/ha, 0 to 100 scale",50
same,"Plant response rating, Barnyardgrass (0 to 100 scale, 0 is no effect, 100 is complete control)",[25],95
same,"Plant response rating, Ducksalad (0 to 100 scale, 0 is no effect, 100 is complete control)",[26],80
same,"Plant response rating, Rice (0 to 100 scale, 0 is no effect, 100 is complete control)",rice (Oryza sativa),0
Cc1cc(C)c(N(COC(=O)C(C)C)S(=O)(=O)C(F)(F)F)cc1C1=NOC2CCCC12 (stereo not drawn) [Compound 308],"Plant response rating, Blackgrass",[1]; [27],0
same,"Plant response rating, Blackgrass",[1]; [28],50
same,"Plant response rating, Corn",corn (Zea mays) [2]; [27],0
same,"Plant response rating, Corn",corn (Zea mays) [2]; [28],60
same,"Plant response rating, Foxtail, Giant",[3]; [27],50
same,"Plant response rating, Foxtail, Giant",[3]; [28],80
same,"Plant response rating, Goosegrass",[4]; [27],80
same,"Plant response rating, Goosegrass",[4]; [28],90
same,"Plant response rating, Kochia",kochia (Bassia scoparia) [5]; [27],20
same,"Plant response rating, Kochia",kochia (Bassia scoparia) [5]; [28],70
same,"Plant response rating, Oat, Wild",[6]; [27],0
same,"Plant response rating, Oat, Wild",[6]; [28],50
same,"Plant response rating, Pigweed, Palmer",[7]; [27],40
same,"Plant response rating, Pigweed, Palmer",[7]; [28],70
same,"Plant response rating, Ragweed",[8]; [27],0
same,"Plant response rating, Ragweed",[8]; [28],50
same,"Plant response rating, Ryegrass, Italian",[9]; [27],60
same,"Plant response rating, Ryegrass, Italian",[9]; [28],90
same,"Plant response rating, Soybean",soybean (Glycine max) [10]; [27],0
same,"Plant response rating, Soybean",soybean (Glycine max) [10]; [28],30
same,"Plant response rating, Wheat",[11]; [27],20
same,"Plant response rating, Wheat",[11]; [28],80
same,"Plant response rating, Blackgrass","[12]; 31 g ai/ha, 10 days",0
same,"Plant response rating, Blackgrass",[12]; 125 g ai/ha,0
same,"Plant response rating, Corn",corn (Zea mays) [13]; [29],0
same,"Plant response rating, Corn","corn (Zea mays) [13]; 125 g ai/ha, 0 to 100 scale",30
same,"Plant response rating, Foxtail, Giant",[14]; [29],0
same,"Plant response rating, Foxtail, Giant","[14]; 125 g ai/ha, 0 to 100 scale",40
same,"Plant response rating, Goosegrass",[15]; [29],50
same,"Plant response rating, Goosegrass","[15]; 125 g ai/ha, 0 to 100 scale",80
same,"Plant response rating, Kochia",kochia (Bassia scoparia) [16]; [29],20
same,"Plant response rating, Kochia","kochia (Bassia scoparia) [16]; 125 g ai/ha, 0 to 100 scale",70
same,"Plant response rating, Oat, Wild",[17]; [29],0
same,"Plant response rating, Oat, Wild","[17]; 125 g ai/ha, 0 to 100 scale",0
same,"Plant response rating, Pigweed, Palmer",[18]; [29],0
same,"Plant response rating, Pigweed, Palmer","[18]; 125 g ai/ha, 0 to 100 scale",0
same,"Plant response rating, Ragweed",[19]; [29],50
same,"Plant response rating, Ragweed","[19]; 125 g ai/ha, 0 to 100 scale",90
same,"Plant response rating, Ryegrass, Italian",[20]; [29],0
same,"Plant response rating, Ryegrass, Italian","[20]; 125 g ai/ha, 0 to 100 scale",30
same,"Plant response rating, Soybean",soybean (Glycine max) [21]; [29],40
same,"Plant response rating, Soybean","soybean (Glycine max) [21]; 125 g ai/ha, 0 to 100 scale",60
same,"Plant response rating, Wheat",[22]; [29],10
same,"Plant response rating, Wheat","[22]; 125 g ai/ha, 0 to 100 scale",50
same,"Plant response rating, Galium",[23]; [29],60
same,"Plant response rating, Galium","[23]; 125 g ai/ha, 0 to 100 scale",90
same,"Plant response rating, Horseweed",[24]; [29],0
same,"Plant response rating, Horseweed","[24]; 125 g ai/ha, 0 to 100 scale",60
same,"Plant response rating, Barnyardgrass (0 to 100 scale, 0 is no effect, 100 is complete control)",[25],95
same,"Plant response rating, Ducksalad (0 to 100 scale, 0 is no effect, 100 is complete control)",[26],90
same,"Plant response rating, Rice (0 to 100 scale, 0 is no effect, 100 is complete control)",rice (Oryza sativa),10
